The values below come from patent US20220313769A1, “NEW ANTIOXIDANT COMPOSITION FOR WOUND HEALING” (HISTOCELL, S.L., priority 2019, published 2022).

In this assay the test system is epithelial fibroblasts. Description: In vitro wound healing assay or scratch assay. The format is cell-based. The conditions noted are these: 0.001% lycopene compared to 5 mM NAC. The protocol:
The in vitro wound healing assay or scratch assay measures the capacity of a product to stimulate cellular proliferation (epithelial fibroblasts or keratinocytes) and close a gash without cells in a cellular monolayer in the culture tissue. For the gash to be homogeneous in all the wells, the cells are seeded in wells containing silicone blocks of the same size, which prevent adhesion of the cells in the area occupied by the block. Thus, epithelial fibroblasts were seeded in 24-well plates with the silicone blocks or barriers. After incubating for 12 hours, the barriers were removed and the cells were incubated for 24-72 hours with medium that contained the components separately or combined [different concentrations of locust bean galactomannan (LBG, 0.2, 0.1 and 0.01%), lycopene (0.001%)] and acetylcysteine (NAC, 5 mM). The entire surface of the well covered by the cells or the number of cells was estimated based on the images obtained of the wells with different treatments.

As for `CC(C)=CCC/C(C)=C/C=C/C(C)=C/C=C/C(C)=C/C=C/C=C(C)/C=C/C=C(C)/C=C/C=C(\C)CCC=C(C)C` [lycopene], the “Capacity of migration of the fibroblasts (FIG. 2B legend)” value is “higher capacity of migration” and the “In vitro healing (FIG. 2B)” value is given as “induced in vitro healing better”.
